In US12446584B2, “Termiticide composition and methods for treating termites” (ADAMA MAKHTESHIM LTD., priority 2013, dated 2025):
Like-named read-outs stand apart in the source and are kept apart here.

Assays:
Format in all cases: in vivo
[1] = tested on: Formosan subterranean termites (Coptotermes formosanus); assay: Thin plate bioassay
Method: (§1) A laboratory study was conducted, using recently collected R. flavipes and C. formosanus. Thin plate bioassays were assembled using 0.6 cm glass and 0.6 cm clear Lexan. A sheet of 20.3×66 cm glass was used for the bottom. Two pieces of 2.5×61 cm glass were laid along the long edges, and two pieces of […]. Each arena had 450 g of screened sand evenly applied, and moistened with deionized water to help hold it in place during construction of the arenas. Fisher brand tongue depressors, cut in half, were used as a food source for the termites, and placed at one end of the arena. Prior to adding the Lexan top sheets, 0.6 cm holes were drilled at one end, and three 0.6 cm treatment apertures were drilled equally spaced apart at the center line. One 8 cm Petri dish with a 0.6 cm hole drilled in the bottom was lined up with the hole at the end of the top sheet, and glued down. Glue was allowed to dry for 72 hours. Large binder clips were used to hold the arena together.
(§2) Termiticide solutions were prepared as follows: Fipronil 0.017%; Fipronil 0.03%; Imidacloprid 0.05%; Imi-Fip 0.067% (Imidacloprid 0.05%, Fipronil 0.017%); and Untreated Control (water only). Ten ml of each finished solution of termiticide were applied to each arena: each of the three treatment apertures received 3.3 ml of termiticide. The treatments were allowed to dry for 24 hours, and the treatment apertures were covered with a 2.5×7.5 cm microscope slide. In each Petri dish, 500 worker and 15 soldier termites were added, using either R. flavipes or C. formosanus. Each treatment was replicated four times. Data regarding distance tunneled and mortality were collected daily for eight days. Data was analyzed using Analysis of Variance (ANOVA) and means were separated by Tukey's HSD (Honest Significant Difference test (IBM SPSS v 19).

[2] = tested on: Eastern subterranean termites (Reticulitermes flavipes); assay: Thin plate bioassay
Method: as §1, §2

[3] = tested on: Eastern Subterranean Reticulitermes flavipes termites; assay: Transfer effects among nestmates (donor/recipient Petri dish arenas); settings: Reticulitermes flavipes, donors treated with 50 ppm
Method: (§3) The purpose of this study was to determine whether there is transference of […] among nestmates of subterranean termites. Arenas for this study consisted of a 15 cm Petri dish. […] Donor and untreated marked control termites were marked using RustOleum® Marking Paint, using methodology described by Keefer et al. 2012.
(§4) Two untreated soldier termites for each species were added to each arena to simulate colony dynamics. Post-treatment observations for mortality were made at 4 h and then daily through day 7.

[4] = tested on: Formosan Coptotermes formosanus termites; assay: as above; settings: donors treated with 50 ppm; for mortality at 50 ppm: Coptotermes formosanus
Method: as §3, §4

[5] = 0.017% solution, 1 day post-treatment
[6] = 0.017% solution, 2 days post-treatment
[7] = 0.017% solution, 3 days post-treatment
[8] = 0.017% solution, 4 days post-treatment
[9] = 0.017% solution, 5 days post-treatment
[10] = 0.017% solution, 6 days post-treatment
[11] = 0.017% solution, 7 days post-treatment
[12] = 0.017% solution, 8 days post-treatment
[13] = 0.03% solution, 1 day post-treatment
[14] = 0.03% solution, 2 days post-treatment
[15] = 0.03% solution, 3 days post-treatment
[16] = 0.03% solution, 4 days post-treatment
[17] = 0.03% solution, 5 days post-treatment
[18] = 0.03% solution, 6 days post-treatment
[19] = 0.03% solution, 7 days post-treatment
[20] = 0.03% solution, 8 days post-treatment
[21] = 4 h, donor:recipient ratio 1:19, 4 h, read-out: Mean total % mortality of donors and recipients
[22] = 4 h, donor:recipient ratio 5:15, 4 h, read-out: Mean total % mortality of donors and recipients
[23] = 4 h, donor:recipient ratio 10:10, 4 h, read-out: Mean total % mortality of donors and recipients
[24] = 4 h, donor:recipient ratio 15:5, 4 h, read-out: Mean total % mortality of donors and recipients
[25] = 24 h, by treatment (all ratios), 1 d, read-out: Mean % mortality of donors and recipients
[26] = 24 h, donor:recipient ratio 1:19, 1 d, read-out: Mean total % mortality of donors and recipients
[27] = 24 h, donor:recipient ratio 5:15, 1 d, read-out: Mean total % mortality of donors and recipients
[28] = 24 h, donor:recipient ratio 10:10, 1 d, read-out: Mean total % mortality of donors and recipients
[29] = 24 h, donor:recipient ratio 15:5, 1 d, read-out: Mean total % mortality of donors and recipients
[30] = 48 h, by treatment (all ratios), 2 d, read-out: Mean % mortality of donors and recipients
[31] = 48 h, donor:recipient ratio 1:19, 2 d, read-out: Mean total % mortality of donors and recipients
[32] = 48 h, donor:recipient ratio 5:15, 2 d, read-out: Mean total % mortality of donors and recipients
[33] = 48 h, donor:recipient ratio 10:10, 2 d, read-out: Mean total % mortality of donors and recipients
[34] = 48 h, donor:recipient ratio 15:5, 2 d, read-out: Mean total % mortality of donors and recipients
[35] = 72 h, by treatment (all ratios), 3 d, read-out: Mean % mortality of donors and recipients
[36] = 72 h, donor:recipient ratio 1:19, 3 d, read-out: Mean total % mortality of donors and recipients
[37] = 72 h, donor:recipient ratio 5:15, 3 d, read-out: Mean total % mortality of donors and recipients
[38] = 72 h, donor:recipient ratio 10:10, 3 d, read-out: Mean total % mortality of donors and recipients
[39] = 72 h, donor:recipient ratio 15:5, 3 d, read-out: Mean total % mortality of donors and recipients
[40] = 96 h, by treatment (all ratios), 4 d, read-out: Mean % mortality of donors and recipients
[41] = 96 h, donor:recipient ratio 1:19, 4 d, read-out: Mean total % mortality of donors and recipients
[42] = 96 h, donor:recipient ratio 5:15, 4 d, read-out: Mean total % mortality of donors and recipients
[43] = 96 h, donor:recipient ratio 10:10, 4 d, read-out: Mean total % mortality of donors and recipients
[44] = 96 h, donor:recipient ratio 15:5, 4 d, read-out: Mean total % mortality of donors and recipients
[45] = 120 h, by treatment (all ratios), 5 d, read-out: Mean % mortality of donors and recipients
[46] = 120 h, donor:recipient ratio 1:19, 5 d, read-out: Mean total % mortality of donors and recipients
[47] = 120 h, donor:recipient ratio 5:15, 5 d, read-out: Mean total % mortality of donors and recipients
[48] = 120 h, donor:recipient ratio 10:10, 5 d, read-out: Mean total % mortality of donors and recipients
[49] = 120 h, donor:recipient ratio 15:5, 5 d, read-out: Mean total % mortality of donors and recipients
[50] = 144 h, by treatment (all ratios), 6 d, read-out: Mean % mortality of donors and recipients
[51] = 144 h, donor:recipient ratio 1:19, 6 d, read-out: Mean total % mortality of donors and recipients
[52] = 144 h, donor:recipient ratio 5:15, 6 d, read-out: Mean total % mortality of donors and recipients
[53] = 144 h, donor:recipient ratio 10:10, 6 d, read-out: Mean total % mortality of donors and recipients
[54] = 144 h, donor:recipient ratio 15:5, 6 d, read-out: Mean total % mortality of donors and recipients
[55] = 168 h, by treatment (all ratios), 7 d, read-out: Mean % mortality of donors and recipients
[56] = 168 h, donor:recipient ratio 1:19, 7 d, read-out: Mean total % mortality of donors and recipients
[57] = 168 h, donor:recipient ratio 5:15, 7 d, read-out: Mean total % mortality of donors and recipients
[58] = 168 h, donor:recipient ratio 10:10, 7 d, read-out: Mean total % mortality of donors and recipients
[59] = 168 h, donor:recipient ratio 15:5, 7 d, read-out: Mean total % mortality of donors and recipients

## N#Cc1nn(-c2c(Cl)cc(C(F)(F)F)cc2Cl)c(N)c1[S+]([O-])C(F)(F)F [Fipronil, 5-amino-1-[2,6-dichloro-4-(trifluoromethyl)phenyl]-4-[(1-R,S)(trifluoromethyl)sulfinyl]-1H-pyrazole-3-carbonitrile]
[1]; [5]
  Mean % mortality: 1.37 a %
[1]; [6]
  Mean % mortality: 8.62 b %
[1]; [7]
  Mean % mortality: 15.00 a %
[1]; [8]
  Mean % mortality: 30.60 a %
[1]; [9]
  Mean % mortality: 72.20 a %
[1]; [10]
  Mean % mortality: 72.20 c %
[1]; [11]
  Mean % mortality: 83.50 b %
[1]; [12]
  Mean % mortality: 100.00a %
[1]; [13]
  Mean % mortality: 5.05 a %
[1]; [14]
  Mean % mortality: 17.25ab %
[1]; [15]
  Mean % mortality: 19.75 a %
[1]; [16]
  Mean % mortality: 49.40 a %
[1]; [17]
  Mean % mortality: 70.50 a %
[1]; [18]
  Mean % mortality: 99.25 a %
[1]; [19]
  Mean % mortality: 100.00 a %
[1]; [20]
  Mean % mortality: 100.00a %
[2]; [5]
  Mean % mortality: 5.25 a %
[2]; [6]
  Mean % mortality: 30.50 a %
[2]; [7]
  Mean % mortality: 75.00 a %
[2]; [8]
  Mean % mortality: 77.50 a %
[2]; [9]
  Mean % mortality: 90.00 b %
[2]; [10]
  Mean % mortality: 95.50 b %
[2]; [11]
  Mean % mortality: 100.00 a %
[2]; [12]
  Mean % mortality: 100.00 a %
[2]; [13]
  Mean % mortality: 0.75 b %
[2]; [14]
  Mean % mortality: 2.25 b %
[2]; [15]
  Mean % mortality: 67.50a %
[2]; [16]
  Mean % mortality: 70.00 a %
[2]; [17]
  Mean % mortality: 90.00 b %
[2]; [18]
  Mean % mortality: 100.00 a %
[2]; [19]
  Mean % mortality: 100.00 a %
[2]; [20]
  Mean % mortality: 100.00 a %
[3]; 4 h, by treatment (all ratios), 4 h, read-out: Mean % mortality of donors and recipients
  mortality at 50 ppm: 3.75%
[3]; [21]
  mortality at 50 ppm: 3.75%
[3]; [22]
  mortality at 50 ppm: 5%
[3]; [23]
  mortality at 50 ppm: 1.25%
[3]; [24]
  mortality at 50 ppm: 5%
[3]; [25]
  mortality at 50 ppm: 23.5%
[3]; [26]
  mortality at 50 ppm: 10%
[3]; [27]
  mortality at 50 ppm: 17.5%
[3]; [28]
  mortality at 50 ppm: 17.5%
[3]; [29]
  mortality at 50 ppm: 56.2%
[3]; [30]
  mortality at 50 ppm: 57.2%
[3]; [31]
  mortality at 50 ppm: 16.2%
[3]; [32]
  mortality at 50 ppm: 53.8%
[3]; [33]
  mortality at 50 ppm: 71.2%
[3]; [34]
  mortality at 50 ppm: 87.5%
[3]; [35]
  mortality at 50 ppm: 70.3%
[3]; [36]
  mortality at 50 ppm: 22.5%
[3]; [37]
  mortality at 50 ppm: 70%
[3]; [38]
  mortality at 50 ppm: 88.8%
[3]; [39]
  mortality at 50 ppm: 100%
[3]; [40]
  mortality at 50 ppm: 72.8%
[3]; [41]
  mortality at 50 ppm: 26.2%
[3]; [42]
  mortality at 50 ppm: 72.5%
[3]; [43]
  mortality at 50 ppm: 92.5%
[3]; [44]
  mortality at 50 ppm: 100%
[3]; [45]
  mortality at 50 ppm: 83.8%
[3]; [46]
  mortality at 50 ppm: 52.5%
[3]; [47]
  mortality at 50 ppm: 82.5%
[3]; [48]
  mortality at 50 ppm: 100%
[3]; [49]
  mortality at 50 ppm: 100%
[3]; [50]
  mortality at 50 ppm: 98.1%
[3]; [51]
  mortality at 50 ppm: 97.5%
[3]; [52]
  mortality at 50 ppm: 95%
[3]; [53]
  mortality at 50 ppm: 100%
[3]; [54]
  mortality at 50 ppm: 100%
[3]; [55]
  mortality at 50 ppm: 100%
[3]; [56]
  mortality at 50 ppm: 100%
[3]; [57]
  mortality at 50 ppm: 100%
[3]; [58]
  mortality at 50 ppm: 100%
[3]; [59]
  mortality at 50 ppm: 100%
[4]; [21]
  mortality at 50 ppm: 0%
[4]; [22]
  mortality at 50 ppm: 3.75%
[4]; [23]
  mortality at 50 ppm: 17.5%
[4]; [24]
  mortality at 50 ppm: 16.2%
[4]; [25]
  mortality at 50 ppm: 50.6%
[4]; [26]
  mortality at 50 ppm: 0%
[4]; [27]
  mortality at 50 ppm: 2.5%
[4]; [28]
  mortality at 50 ppm: 100%
[4]; [29]
  mortality at 50 ppm: 100%
[4]; [30]
  mortality at 50 ppm: 53.1%
[4]; [31]
  mortality at 50 ppm: 8.75%
[4]; [32]
  mortality at 50 ppm: 3.75%
[4]; [33]
  mortality at 50 ppm: 100%
[4]; [34]
  mortality at 50 ppm: 100%
[4]; [35]
  mortality at 50 ppm: 59.7%
[4]; [36]
  mortality at 50 ppm: 18.8%
[4]; [37]
  mortality at 50 ppm: 20%
[4]; [38]
  mortality at 50 ppm: 100%
[4]; [39]
  mortality at 50 ppm: 100%
[4]; [40]
  mortality at 50 ppm: 67.8%
[4]; [41]
  mortality at 50 ppm: 25%
[4]; [42]
  mortality at 50 ppm: 46.2%
[4]; [43]
  mortality at 50 ppm: 100%
[4]; [44]
  mortality at 50 ppm: 100%
[4]; [45]
  mortality at 50 ppm: 82.5%
[4]; [46]
  mortality at 50 ppm: 30%
[4]; [47]
  mortality at 50 ppm: 100%
[4]; [48]
  mortality at 50 ppm: 100%
[4]; [49]
  mortality at 50 ppm: 100%
[4]; [50]
  mortality at 50 ppm: 85.5%
[4]; [51]
  mortality at 50 ppm: 30%
[4]; [52]
  mortality at 50 ppm: 100%
[4]; [53]
  mortality at 50 ppm: 100%
[4]; [54]
  mortality at 50 ppm: 100%
[4]; [55]
  mortality at 50 ppm: 90%
[4]; [56]
  mortality at 50 ppm: 60%
[4]; [57]
  mortality at 50 ppm: 100%
[4]; [58]
  mortality at 50 ppm: 100%
[4]; [59]
  mortality at 50 ppm: 100%
[4]; by treatment (all ratios), 4 h
  Mean % mortality of donors and recipients: 9.37 b %
[4]; by treatment (all ratios), 4 h, listed as fipronil
  Mean % mortality of donors and recipients: 1%
